Data published in ChEMBL document CHEMBL1201862, “PubChem BioAssay data set” (2004).
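Following 48 hours of exposure in 96-well plates, responses at five concentrations were used to interpolate endpoints linearly. Abbreviation: GI50, concentration required for 50% inhibition of growth.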 Active and inactive are the calls of the source. Cut-off read from the data, not from the text of the source: active = GI50 up to about 1.1 µM and inactive = higher.

Key:
Test in all cases: growth of human tumour cells (NCI), 48 h
SF-268 = test system: SF-268
CAKI-1 = test system: CAKI-1
M14 = test system: M14
A549 = test system: A549
SNB-75 = test system: SNB-75
SK-MEL-5 = test system: SK-MEL-5
UACC-257 = test system: UACC-257
RPMI-8226 = test system: RPMI-8226
UACC-62 = test system: UACC-62
ACHN = test system: ACHN
NCI-H226 = test system: NCI-H226
T47D = test system: T47D
MCF7 = test system: MCF7
HOP-62 = test system: HOP-62
MOLT-4 = test system: MOLT-4
SW-620 = test system: SW-620
786-0 = test system: 786-0
NCI-H460 = test system: NCI-H460
U-251 = test system: U-251
Malme-3M = test system: Malme-3M
LOX IMVI = test system: LOX IMVI
PC-3 = test system: PC-3
HOP-92 = test system: HOP-92
HCT-116 = test system: HCT-116

Measured: GI50

CC[C@@]1(O)C(=O)OCc2c1cc1n(c2=O)Cc2c-1nc1ccccc1c2/C=N/c1ccccc1N[C@@H]1c2cc3c(cc2[C@@H](c2cc(OC)c(O)c(OC)c2)[C@H]2C(=O)OC[C@@H]21)OCO3
active: SF-268 28.5 nM | CAKI-1 22.5 nM | M14 40 nM | A549 41.1 nM | SNB-75 51 nM | SK-MEL-5 95.5 nM | UACC-257 412 nM | RPMI-8226 270 nM | UACC-62 26.4 nM | ACHN < 14.5 nM | NCI-H226 70.2 nM | T47D 23.6 nM | MCF7 < 11.5 nM | HOP-62 < 18.9 nM | MOLT-4 < 10 nM | SW-620 132 nM | 786-0 21.3 nM | NCI-H460 < 10 nM | U-251 296 nM | Malme-3M 394 nM | LOX IMVI 13.8 nM | PC-3 284 nM | HOP-92 224 nM | HCT-116 46.9 nM
